{
  "source": "patent US20100048498A1",
  "about": "“STABLE NON-DIHYDRATE AZITHROMYCIN ORAL SUSPENSIONS” (priority 2004, published 2010)",
  "assay_type_in_all_cases": "physicochemical",
  "key": {"[1]": {"test": "Stability of non-dihydrate azithromycin in suspension (POS formulation II or bulk drug in water); SS-NMR quantification of form A", "description": "The stability of various forms of non-dihydrate azithromycin, in water and in flavored oral suspensions, was evaluated. Specifically, non-dihydrate azithromycin forms G, M, N, F and J were separately used in POS formulation II. These POS formulations were constituted by mixing with 18 mls of water. The suspensions were then stored for 1, 5 and 10 days at either 5° C. or 30° C. Suspensions of bulk azithromycin forms G, M, N, F and J were also constituted with 18 mls of water and stored under the same conditions.\nUpon conclusion of the storage time period the suspensions were filtered and suspended solids collected as described previously."}, "[2]": {"test": "Effect of individual flavorings and sucrose on conversion of azithromycin form G to form A in pH 8.16 buffer", "set-up": "key: AC means all converted to form A", "settings": "18 mls pH 8.16 buffer, room temperature", "method": "To evaluate a proposed excipient, the active dose of the azithromycin was suspended with the desired amount of potential excipient in a 0.1 M phosphate buffer system adjusted to a pH of 8.16. The buffer system was created by dissolving 13.738 g of NaH2PO4.H2O in 900 ml of water, adjusting the pH to 8.16 with sodium hydroxide, and diluting the solution to 1 liter with water. The sample, once constituted with buffer, was then stored at room temperature for the desired constituted product shelf-life. The azithromycin product was then isolated through filtration, and the resulting solid filtrate analyzed by a Solid-State Nuclear Magnetic Resonance method described previously that allows for quantitation of the dihydrate form present.\nThe effect of various individual flavoring components and of sucrose upon conversion of azithromycin form G to azithromycin dihydrate (form A), in suspensions, were evaluated as follows.\nAn 820 mg dose of form G azithromycin was weighed and mixed with 200 mg of each flavoring or sucrose. The mass of each flavoring, used in this test, was chosen to match that of the anticipated required amount for effective flavoring in the constituted POS. In this example, five flavorings, specifically artificial crème de vanilla, B&C banana, Trusil banana, Trusil cherry and artificial grape were investigated in addition to sucrose. Each of the binary samples were then constituted with 18 mls of pH=8.16 buffer and stored for 1, 5 and 10-days at room temperature.\nA control suspension of azithromycin form G constituted with 18 mls of pH=8.16 buffer was run with each series of experiments using the same storage conditions. Upon completion of the constituted storage time period these samples were filtered to isolate drug product and analyzed using the SS-NMR method to quantify the amount of azithromycin dihydrate present."}, "[3]": {"test": "Stability of azithromycin form G in suspensions prepared from POS formulations I, II and III", "settings": "18 mls water, 30° C.", "method": "These POS formulations were created by individually weighing each formulation component into a 60-cc High Density Polyethylene (HDPE) bottle with closure. The resulting formulations were then dry-mixed with a Turbula blender (Glen Mills Inc. Maywood, NJ) for 5 minutes. The powder blends were then constituted with 18 mls of water, shaken for 30 seconds and stored without agitation under controlled temperature conditions.\nUpon conclusion of the storage time period the POS samples were filtered using a Buchner funnel in combination with a standard vacuum filtration apparatus. A Millipore prefilter (AP25, 47 mm) was fitted onto the funnel for the collection of suspended solids. Before filtering, the constituted POS sample was poured into a 200 ml volumetric flask and diluted to 200 ml with water. This lowered the viscosity of the sample, facilitating a quick filtration step. With the vacuum on, the diluted POS samples were poured onto the Millipore prefilter. The isolated filtrate remaining on top of the prefilter was then allowed to stand for 2-minutes in order to dry. Vacuum was applied to the filtration apparatus during this drying step. Suspensions containing only bulk drug were transferred directly onto the filter paper upon completion of storage, without the described dilution step during sample preparation. After drying, the collected filtrate was placed into 4 cc Sunbroker vials and analyzed via Solid-State Nuclear Magnetic Resonance (SS-NMR) for quantification of conversion to azithromycin dihydrate (form A).\nApproximately 300 mg of sample were tightly packed into a 7 mm ZrO spinner for each sample analyzed. One-dimensional ^13C spectra were collected at ambient pressure using ^1H-^13C cross-polarization magic angle spinning (CPMAS) at 295 K on a Bruker 7 mm BL CPMAS probe positioned into a wide-bore Bruker Avance DSX 500 MHz NMR spectrometer (Bruker BioSpin Corporation; Billerica, Mass.). The samples were spun at 7000 Hz corresponding to the maximum specified spinning speed for the 7 mm spinners. The fast spinning speed minimized the intensities of the spinning side bands. To optimize the signal sensitivity, the cross-polarization contact time was adjusted to 2.3 ms and the decoupling power was set to 65 kHz. Typically, a total of 600 scans were acquired, resulting in approximately a 30 minute acquisition time. The spectra were referenced using an external sample of adamantane with its most upfield resonance set to 29.5 ppm.\nEight pairs of resolved peaks were identified to calibrate ratios of form A in the presence of form G, N, M or F. Integral intensities of all peaks were used as input for the calibration procedure using five different binary mixtures ranging from 3 to 81% of form A with each non-dihydrate form. From this, one non-linear calibration graph was generated for each pair of peaks and each form. For the experimental samples, only the peaks that were totally void from excipient overlap were preferentially integrated. The unknown percentages of form A were then determined from the appropriate calibration graphs. The final result for each sample analyzed was calculated as a weighted average of the determinations from each resolved peak pair.\nThe stability of form G azithromycin was also evaluated for suspensions prepared from POS formulations I, II and III. The form G bulk drug substance contained <1% by weight of form A prior to formulation and constitution. These suspensions were constituted with 18 mls of water and stored for 1 and 10 days at 30° C."}},
  "data": [
    {"smiles": "CC[C@H]1OC(=O)[C@H](C)[C@@H](O[C@H]2C[C@@](C)(OC)[C@@H](O)[C@H](C)O2)[C@H](C)[C@@H](O[C@@H]2O[C@H](C)C[C@H](N(C)C)[C@H]2O)[C@](C)(O)C[C@@H](C)CN(C)[C@H](C)[C@@H](O)[C@]1(C)O", "note": "[Form G, azithromycin sesquihydrate]", "values": [
      {"measurement": "% A (azithromycin dihydrate, form A, of recovered azithromycin)", "setting": "[1]; Bulk Drug in 18 mls water, 5° C., Day 1", "result": 1, "unit": "%"},
      {"measurement": "% A (azithromycin dihydrate, form A, of recovered azithromycin)", "setting": "[1]; Bulk Drug in 18 mls water, 5° C., Day 5", "result": 6, "unit": "%"},
      {"measurement": "% A (azithromycin dihydrate, form A, of recovered azithromycin)", "setting": "[1]; Bulk Drug in 18 mls water, 5° C., Day 10", "result": 12, "unit": "%"},
      {"measurement": "% A (azithromycin dihydrate, form A, of recovered azithromycin)", "setting": "[1]; Bulk Drug in 18 mls water, 30° C., Day 1", "result": 3, "unit": "%"},
      {"measurement": "% A (azithromycin dihydrate, form A, of recovered azithromycin)", "setting": "[1]; Bulk Drug in 18 mls water, 30° C., Day 5", "result": 26, "unit": "%"},
      {"measurement": "% A (azithromycin dihydrate, form A, of recovered azithromycin)", "setting": "[1]; Bulk Drug in 18 mls water, 30° C., Day 10", "result": 73, "unit": "%"},
      {"measurement": "% A (azithromycin dihydrate, form A, of recovered azithromycin)", "setting": "[1]; Formulation II constituted with 18 mls water, 5° C., Day 1", "result": 72, "unit": "%"},
      {"measurement": "% A (azithromycin dihydrate, form A, of recovered azithromycin)", "setting": "[1]; Formulation II constituted with 18 mls water, 5° C., Day 5", "result": 75, "unit": "%"},
      {"measurement": "% A (azithromycin dihydrate, form A, of recovered azithromycin)", "setting": "[1]; Formulation II constituted with 18 mls water, 5° C., Day 10", "result": 78, "unit": "%"},
      {"measurement": "% A (azithromycin dihydrate, form A, of recovered azithromycin)", "setting": "[1]; Formulation II constituted with 18 mls water, 30° C., Day 1", "result": 82, "unit": "%"},
      {"measurement": "% A (azithromycin dihydrate, form A, of recovered azithromycin)", "setting": "[1]; Formulation II constituted with 18 mls water, 30° C., Day 5", "result": 74, "unit": "%"},
      {"measurement": "% A (azithromycin dihydrate, form A, of recovered azithromycin)", "setting": "[1]; Formulation II constituted with 18 mls water, 30° C., Day 10", "result": 76, "unit": "%"},
      {"measurement": "Δ % Form A", "setting": "[2]; 820 mg form G + 200 mg Artificial Crème de Vanilla Flavor, constituted 1 day, listed as form G, sesquihydrate", "result": "did not exhibit conversion"},
      {"measurement": "Δ % Form A", "setting": "[2]; 820 mg form G + 200 mg Artificial Crème de Vanilla Flavor, constituted 1 day, sesquihydrate", "result": 0, "unit": "%"},
      {"measurement": "Δ % Form A", "setting": "[2]; 820 mg form G + 200 mg Artificial Crème de Vanilla Flavor, constituted 5 days", "result": 4, "unit": "%"},
      {"measurement": "Δ % Form A", "setting": "[2]; 820 mg form G + 200 mg Artificial Crème de Vanilla Flavor, constituted 10 days", "result": 30, "unit": "%"},
      {"measurement": "Δ % Form A", "setting": "[2]; 820 mg form G + 200 mg Artificial Grape Flavor, constituted 1 day", "result": 57, "unit": "%"},
      {"measurement": "Δ % Form A", "setting": "[2]; 820 mg form G + 200 mg Artificial Grape Flavor, constituted 5 days", "result": 75, "unit": "%"},
      {"measurement": "Δ % Form A", "setting": "[2]; 820 mg form G + 200 mg Artificial Grape Flavor, constituted 10 days", "result": "AC"},
      {"measurement": "Δ % Form A", "setting": "[2]; 820 mg form G + 200 mg B&C Banana Flavor, constituted 1 day, listed as form G, sesquihydrate", "result": "did not exhibit conversion"},
      {"measurement": "Δ % Form A", "setting": "[2]; 820 mg form G + 200 mg B&C Banana Flavor, constituted 1 day, sesquihydrate", "result": 0, "unit": "%"},
      {"measurement": "Δ % Form A", "setting": "[2]; 820 mg form G + 200 mg B&C Banana Flavor, constituted 5 days", "result": 27, "unit": "%"},
      {"measurement": "Δ % Form A", "setting": "[2]; 820 mg form G + 200 mg B&C Banana Flavor, constituted 10 days", "result": "AC"},
      {"measurement": "Δ % Form A", "setting": "[2]; 820 mg form G + 200 mg Sucrose, constituted 1 day", "result": 2, "unit": "%"},
      {"measurement": "Δ % Form A", "setting": "[2]; 820 mg form G + 200 mg Sucrose, constituted 5 days", "result": 1, "unit": "%"},
      {"measurement": "Δ % Form A", "setting": "[2]; 820 mg form G + 200 mg Sucrose, constituted 10 days, listed as form G, sesquihydrate", "result": "only minimal conversion"},
      {"measurement": "Δ % Form A", "setting": "[2]; 820 mg form G + 200 mg Sucrose, constituted 10 days, sesquihydrate", "result": 6, "unit": "%"},
      {"measurement": "Δ % Form A", "setting": "[2]; 820 mg form G + 200 mg Trusil Banana Flavor, constituted 1 day", "result": 32, "unit": "%"},
      {"measurement": "Δ % Form A", "setting": "[2]; 820 mg form G + 200 mg Trusil Banana Flavor, constituted 5 days", "result": 57, "unit": "%"},
      {"measurement": "Δ % Form A", "setting": "[2]; 820 mg form G + 200 mg Trusil Banana Flavor, constituted 10 days", "result": "AC"},
      {"measurement": "Δ % Form A", "setting": "[2]; 820 mg form G + 200 mg Trusil Cherry Flavor, constituted 1 day", "result": 32, "unit": "%"},
      {"measurement": "Δ % Form A", "setting": "[2]; 820 mg form G + 200 mg Trusil Cherry Flavor, constituted 5 days", "result": 75, "unit": "%"},
      {"measurement": "Δ % Form A", "setting": "[2]; 820 mg form G + 200 mg Trusil Cherry Flavor, constituted 10 days", "result": "AC"},
      {"measurement": "% Form A", "setting": "[3]; Formulation I (no flavorings), Day 1", "result": 0, "unit": "%"},
      {"measurement": "% Form A", "setting": "[3]; Formulation I (no flavorings), Day 10, listed as form G, sesquihydrate", "result": "did not exhibit conversion"},
      {"measurement": "% Form A", "setting": "[3]; Formulation I (no flavorings), Day 10, sesquihydrate", "result": 0, "unit": "%"},
      {"measurement": "% Form A", "setting": "[3]; Formulation II (Trusil banana), Day 1", "result": 84, "unit": "%"},
      {"measurement": "% Form A", "setting": "[3]; Formulation II (Trusil banana), Day 10", "result": 91, "unit": "%"},
      {"measurement": "% Form A", "setting": "[3]; Formulation III (B&C banana), Day 1", "result": 27, "unit": "%"},
      {"measurement": "% Form A", "setting": "[3]; Formulation III (B&C banana), Day 10", "result": 52, "unit": "%"}
    ]}
  ]
}
